Laboratory results as given in ChEMBL document CHEMBL5356973 (J Med Chem, 2023).
pEC50: −log10 of the molar value. The source made the active and inactive calls. The rule behind the calls is not given here.

How the values were obtained:
[1] = AUC in Kunming mouse plasma at 1 mg/kg, iv measured upto 240 mins by LC-MS/MS analysis; format: ADME, organism-based; set-up: time < 240 min, dose 1 mg/kg, route iv
[2] = Metabolic stability in mouse brain homogenate assessed as degradation half life at 10 mM measured upto 480 mins by RP-HPLC analysis; format: ADME, tissue-based
[3] = Toxicity in sc dosed 16 hrs fasted Kunming mouse assessed as constipation by measuring inhibition of gastrointestinal transit administered for 15 mins followed by charcoal meal and measured after 30 mins; format: organism-based; conditions: in vivo, 0.75 h, time 45 min
[4] = Toxicity in Kunming mouse assessed as effect on locomotor activity at 88 nmol/kg, sc measured after 20 to 180 mins by open field test; format: organism-based; conditions: in vivo, time 20-180 min
Mus musculus [5] = test: Antinociceptive activity in Kunming mouse assessed as changes in tail flick latency by measuring time duration of action at 0.88 to 8.82 nmol/kg, po measured for 360 mins by tail-flick test; format: functional; conditions: dose 0.88-8.82 nmol/kg, 6 h
Mus musculus [6] = test: Antinociceptive activity in icv dosed Kunming mouse assessed as changes in tail flick latency measured for 360 mins by tail-flick test; format: functional
[7] = target: T1, Delta-type opioid receptor (Homo sapiens, UniProt P41143); test: Agonist activity at DOR (unknown origin) transfected in CHO cells co-expressing Galphaq15 assessed as increase in calcium mobilization by Fluo-4AM dye based assay; format: functional, cell-based
Mus musculus [8] = test: Antinociceptive activity in po dosed Kunming mouse assessed as changes in tail flick latency measured for 360 mins by tail-flick test; format: functional
[9] = Toxicity in Kunming mouse assessed as reduction in respiration frequency at 88 nmol/kg, sc measured upto 100 mins by whole-body plethysmography; format: organism-based; conditions: in vivo, 1.667 h
[10] = target: T2, Neuropeptide FF receptor 2 (Homo sapiens, UniProt Q9Y5X5); test: Agonist activity at NPFF2R (unknown origin) transfected in HEK293 cells co-expressing Galphaq15 assessed as increase in calcium mobilization by measuring maximal efficacy by Fluo-4AM dye based assay relative to control; format: functional, cell-based; conditions: filed as agonist
[11] = target: T3, Kappa-type opioid receptor (Homo sapiens, UniProt P41145); test: Agonist activity at KOR (unknown origin) transfected in CHO cells co-expressing Galphaq15 assessed as increase in calcium mobilization by measuring maximal efficacy by Fluo-4AM dye based assay relative to control; format: functional, cell-based; conditions: filed as agonist
[12] = Ratio of AUC in brain to plasma in Kunming mouse at 1 mg/kg, iv measured upto 240 mins by LC-MS/MS analysis; format: ADME, organism-based; conditions: read-out: BPR
Mus musculus [13] = test: Antinociceptive activity in Kunming mouse assessed as changes in tail flick latency by measuring maximal possible effect at 0.88 nmol/kg, sc measured after 30 mins by tail-flick test; format: functional; conditions: 0.5 h
Mus musculus [14] = test: Antinociceptive activity in Kunming mouse assessed as changes in tail flick latency by measuring time duration of antinociceptive effect at 0.88 nmol/kg, sc by tail-flick test; format: functional
Mus musculus [15] = test: Antinociceptive activity in Kunming mouse assessed as changes in tail flick latency at 0.88 nmol/kg, sc pretreated with beta-funaltrexamine at 10 nmol, icv for 4 hrs followed by compound addition and measured for 360 mins by tail-flick test; format: functional, organism-based
[16] = Toxicity in Kunming mouse assessed as addiction behavior at 88 nmol/kg, sc administered for 3 days starting from day 2 and measured on day 5 by conditioned place preference test; format: organism-based; conditions: in vivo, 96 h, time 4 day
Mus musculus [17] = test: Antinociceptive activity in Kunming mouse assessed as changes in tail flick latency by measuring maximal possible effect at 0.88 nmol/kg, sc measured after 60 mins by tail-flick test; format: functional; conditions: 1 h
Mus musculus [18] = test: Antinociceptive activity in Kunming mouse assessed as changes in tail flick latency by measuring maximal possible effect at 0.88 nmol/kg, sc measured after 120 mins by tail-flick test; format: functional; conditions: 2 h
[19] = Agonist activity at NPFF1R (unknown origin) transfected in CHO cells co-expressing Galphaq15 assessed as increase in calcium mobilization by measuring maximal efficacy by Fluo-4AM dye based assay relative to control; format: functional, cell-based; conditions: Homo sapiens, filed as agonist
[20] = Toxicity in sc dosed Kunming mouse assessed as effect on naloxone-induced jumping response at 88 nmol/kg, sc administered every 8 hrs for 3 days followed by naloxone administration at 2 hrs post last dose and measured immediately by Nal-precipitated withdraw test; format: organism-based; conditions: in vivo, 74 h
[21] = target: T3, Kappa-type opioid receptor; test: Agonist activity at KOR (unknown origin) transfected in CHO cells co-expressing Galphaq15 assessed as increase in calcium mobilization by Fluo-4AM dye based assay; format: functional, cell-based
[22] = target: T1, Delta-type opioid receptor; test: Agonist activity at DOR (unknown origin) transfected in CHO cells co-expressing Galphaq15 assessed as increase in calcium mobilization by measuring maximal efficacy by Fluo-4AM dye based assay relative to control; format: functional, cell-based; conditions: filed as agonist
Mus musculus [23] = test: Antinociceptive activity in Kunming mouse assessed as changes in tail flick latency at 0.88 nmol/kg, sc pretreated with naloxone methiodide at 5 nmol, icv for 10 mins followed by compound addition and measured for 360 mins by tail-flick test; format: functional, organism-based
Mus musculus [24] = test: Antinociceptive activity in Kunming mouse assessed as changes in tail flick latency by measuring maximal possible effect at 0.88 nmol/kg, sc measured after 240 mins by tail-flick test; format: functional; conditions: 4 h
[25] = Induction of antinociceptive tolerance in Kunming mouse assessed as decrease in tail flick latency at 0.88 nmol/kg, sc administered once daily for 8 days and measured once daily by tail-flick test; format: toxicity, organism-based; conditions: in vivo, 192 h, time 8 day
Mus musculus [26] = test: Antinociceptive activity in sc dosed Kunming mouse assessed as changes in tail flick latency measured after 10 to 360 mins by tail-flick test; format: functional; conditions: time 10-360 min
Mus musculus [27] = test: Antinociceptive activity in Kunming mouse assessed as changes in tail flick latency at 0.88 nmol/kg, sc pretreated with nor-binaltorphimine at 10 nmol, icv for 30 mins followed by compound addition and measured for 360 mins by tail-flick test; format: functional, organism-based
Mus musculus [28] = test: Antinociceptive activity in Kunming mouse assessed as changes in tail flick latency by measuring time duration of action at 1 to 10 pmol, icv measured for 360 mins by tail-flick test; format: functional; conditions: dose 1-10 pmol, 6 h
Mu-type opioid receptor [29] = target: T4, Mu-type opioid receptor (Homo sapiens, UniProt P35372); test: Agonist activity at MOR (unknown origin) transfected in CHO cells co-expressing Galphaq15 assessed as increase in calcium mobilization by measuring maximal efficacy by Fluo-4AM dye based assay relative to control; format: functional, cell-based; conditions: filed as agonist
[30] = Toxicity in Kunming mouse assessed as effect on motor coordination at 88 nmol/kg, sc measured after 15 to 45 mins by rotarod test; format: organism-based; conditions: in vivo, time 15-45 min
[31] = target: T2, Neuropeptide FF receptor 2; test: Agonist activity at NPFF2R (unknown origin) transfected in HEK293 cells co-expressing Galphaq15 assessed as increase in calcium mobilization by Fluo-4AM dye based assay; format: functional, cell-based
[32] = AUC in Kunming mouse brain at 1 mg/kg, iv measured upto 240 mins by LC-MS/MS analysis; format: ADME, organism-based; set-up: time < 240 min, dose 1 mg/kg, route iv; conditions: in vivo, 4 h
Mus musculus [33] = test: Antinociceptive activity in Kunming mouse assessed as changes in tail flick latency at 0.88 nmol/kg, sc pretreated with naltrindole at 10 nmol, icv for 10 mins followed by compound addition and measured for 360 mins by tail-flick test; format: functional, organism-based
Mus musculus [34] = test: Antinociceptive activity in Kunming mouse assessed as changes in tail flick latency by measuring maximal possible effect at 0.88 nmol/kg, sc measured after 20 mins by tail-flick test; format: functional
Mus musculus [35] = test: Antinociceptive activity in Kunming mouse assessed as changes in tail flick latency at 0.009 nmol/kg, sc pretreated with 1-adamantanecarbonyl-RF-NH2 at 10 nmol, icv for 5 mins followed by compound addition and measured for 360 mins by tail-flick test; format: functional, organism-based
[36] = Metabolic stability in mouse plasma assessed as degradation half life at 10 mM measured upto 480 mins by RP-HPLC analysis; format: ADME, cell-free
Mu-type opioid receptor [37] = target: T4, Mu-type opioid receptor; test: Agonist activity at MOR (unknown origin) transfected in CHO cells co-expressing Galphaq15 assessed as increase in calcium mobilization by Fluo-4AM dye based assay; format: functional, cell-based

T2 sequence (Q9Y5X5 whole entry): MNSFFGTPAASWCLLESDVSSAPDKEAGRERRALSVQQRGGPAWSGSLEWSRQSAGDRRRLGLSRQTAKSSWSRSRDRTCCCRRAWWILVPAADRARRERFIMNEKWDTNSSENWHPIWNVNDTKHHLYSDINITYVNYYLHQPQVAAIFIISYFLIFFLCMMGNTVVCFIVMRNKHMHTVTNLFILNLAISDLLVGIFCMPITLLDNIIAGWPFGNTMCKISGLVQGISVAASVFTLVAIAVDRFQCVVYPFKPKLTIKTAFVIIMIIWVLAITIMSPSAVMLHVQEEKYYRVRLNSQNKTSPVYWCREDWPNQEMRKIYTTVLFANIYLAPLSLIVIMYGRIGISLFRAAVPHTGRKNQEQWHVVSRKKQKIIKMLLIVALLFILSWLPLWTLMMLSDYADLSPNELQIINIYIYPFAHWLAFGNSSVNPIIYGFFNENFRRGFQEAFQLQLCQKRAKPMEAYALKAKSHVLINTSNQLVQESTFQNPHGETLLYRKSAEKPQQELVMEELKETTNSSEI
T4 sequence (P35372 whole entry): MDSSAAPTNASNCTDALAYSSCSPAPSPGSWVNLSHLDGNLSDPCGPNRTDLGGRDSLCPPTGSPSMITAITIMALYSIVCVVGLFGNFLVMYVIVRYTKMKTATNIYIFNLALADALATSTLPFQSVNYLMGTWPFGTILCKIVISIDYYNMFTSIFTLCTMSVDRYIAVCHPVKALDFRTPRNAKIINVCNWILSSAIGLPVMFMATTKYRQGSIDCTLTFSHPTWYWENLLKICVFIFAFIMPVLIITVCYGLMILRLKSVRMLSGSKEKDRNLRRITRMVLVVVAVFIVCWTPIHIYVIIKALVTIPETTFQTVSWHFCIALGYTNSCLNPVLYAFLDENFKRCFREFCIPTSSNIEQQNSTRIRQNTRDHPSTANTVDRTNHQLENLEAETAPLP
T1 sequence (P41143 whole entry): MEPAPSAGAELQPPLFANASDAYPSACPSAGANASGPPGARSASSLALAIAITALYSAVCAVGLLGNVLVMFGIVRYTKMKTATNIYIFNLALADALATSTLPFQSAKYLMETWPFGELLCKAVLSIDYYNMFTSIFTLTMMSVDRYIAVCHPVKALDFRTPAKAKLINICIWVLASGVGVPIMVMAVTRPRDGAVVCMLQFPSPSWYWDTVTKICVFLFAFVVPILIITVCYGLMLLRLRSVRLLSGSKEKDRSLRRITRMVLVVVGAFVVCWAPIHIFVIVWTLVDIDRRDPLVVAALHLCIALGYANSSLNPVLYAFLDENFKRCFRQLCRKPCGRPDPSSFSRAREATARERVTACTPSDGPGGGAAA
T3 sequence (P41145 whole entry): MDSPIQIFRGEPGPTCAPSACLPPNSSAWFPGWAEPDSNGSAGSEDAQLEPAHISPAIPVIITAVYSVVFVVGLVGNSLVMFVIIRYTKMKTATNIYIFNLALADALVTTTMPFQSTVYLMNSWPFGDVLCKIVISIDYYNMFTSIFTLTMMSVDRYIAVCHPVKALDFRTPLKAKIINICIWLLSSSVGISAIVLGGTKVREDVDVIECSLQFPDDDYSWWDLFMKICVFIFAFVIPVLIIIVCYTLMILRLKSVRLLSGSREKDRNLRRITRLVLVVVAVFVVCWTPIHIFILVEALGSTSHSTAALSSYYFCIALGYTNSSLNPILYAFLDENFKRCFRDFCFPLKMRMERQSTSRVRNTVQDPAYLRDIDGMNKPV

With `CN1C(=O)CNC(=O)[C@H](N[C@@H](Cc2ccc(O)cc2)C(=O)O)CCCC/C=C\C[C@@H](C(=O)N2CCC[C@H]2C(=O)N[C@@H](CCC(N)=O)C(=O)N[C@@H](CCCNC(=N)N)C(=O)N[C@@H](Cc2ccccc2)C(N)=O)NC(=O)[C@@H]1Cc1ccccc1` the AUC at 4 h [1] was 2270 ng·h/mL, the half-life at 10000 µM [2] was 1.78 h and the ED50 [3] was 84 nmol/kg. The Activity [4] was “Non-Toxic”, the Time (Mus musculus [5]) was “<=360 min” and the Activity (Mus musculus [6]) was “Dose-Dependent Effect”. The ED50 (Mus musculus [6]; 6 h) was 1.38 pmol, the pEC50 [7] was 7.25 and the Activity (Mus musculus [8]) was “Dose-Dependent Effect”. For the same molecule, the ED50 (Mus musculus [8]; 6 h) was 0.00135 µmol/kg, the Activity [9] was “Non-Toxic” and the Emax [10] was 89.2%. The Emax [11] was 99.2%, the Kp at 4 h [12] was 1.35 and the MPE (Mus musculus [13]) was 89.5%. The Time (Mus musculus [14]) was 360 min, the Activity (Mus musculus [15]) was “inactive” and the Activity [16] was “Non-Toxic”. The MPE (Mus musculus [17]) was 85.4%, the MPE (Mus musculus [18]) was 58.9% and the Emax [19] was 93.7%. The Activity [20] was “Non-Toxic”, the pEC50 [21] was 6.77 and the Emax [22] was 81.9%. For the same molecule, the Activity (Mus musculus [23]) was “inactive”, the MPE (Mus musculus [24]) was 46.2% and the Activity [25] was “Non-Toxic”. For the same molecule, the Activity (Mus musculus [26]) was “Dose-Dependent Effect”, the ED50 (Mus musculus [26]) was 1e-05 µmol/kg and the Activity (Mus musculus [27]) was “inactive”. For the same molecule, the Time (Mus musculus [28]) was “<=360 min”, the Emax (Mu-type opioid receptor [29]) was 98.1% and the Activity [30] was “Non-Toxic”. For the same molecule, the pEC50 [31] was 6.84, the AUC [32] was 183.2 µg·min/g and the Activity (Mus musculus [33]) was “Active”. For the same molecule, the MPE (Mus musculus [34]) was 89.8%, the Activity (Mus musculus [35]) was “Active” and the half-life at 10000 µM [36] was 0.447 h. The pEC50 (Mu-type opioid receptor [37]) was 8.55.
